Patent publication US5561149A, “Use of certain imidazol carbazols in treating stress-related manic-depressive disorders” (priority 1986, dated 1996)
Read-outs that look alike come from different tables or passages of the source.

Key:
[1] = test system: male OF-1 mice (social interactions and feeding); experiment: Competitive feeding, Study C; assay type: in vivo, mouse
Experimental: In this test 8 pairs of male OF-1 mice deprived of food for 6 hours are forced to compete over 6 minutes for a single food pellet. […]

[2] = test system: mice (approach-oriented behaviour); experiment: Approach-oriented behaviour in mice in stress-situations; assay type: in vivo, mouse; conditions: for approach-oriented social behaviours: food deprived mice under white light; for effect on promoting social interaction under stress related conditions: mouse, in vivo
Experimental: Trials have been carried out on the effects of the compounds of the invention on approach-oriented behaviour in mice. The compounds increase approach-oriented behaviour in stress-situations normally inhibitory to social responses. Thus situations involving unfamiliar surroundings, contact with foreign aggressive opponents, competition for food, were created under reversed lighting conditions whereby observations were performed during the darkphase. Under these conditions, untreated rodents exihibit high levels of flight, particularly depressive ambivalence and escape behaviour, but low levels of social behaviour involving approach activity.

[3] = test system: mice (stretched attend postures); conditions: H. P. Kasermann, Psychopharmacology 1986, 89, 31-37; cited from earlier work
[4] = test system: intruder mice (social behaviour); experiment: Intruder test, Study A; assay type: in vivo, mouse; conditions: 1 mg/kg p.o., 1 hour before the encounter
Experimental: A foreign male mouse (intruder), placed for 6 minutes, into the cage of an isolated male is attacked and responds with defensive escape patterns collectively known as "flight". Flight and associated defensive activities over-ride the intruder's tendency to approach the attacker so that much of the behaviour includes social forms of ambivalence.
Intruders receiving oral doses of benzodiazepines show less of these defensive activities and more approach-oriented behaviour (A. K. Dixon Triangle 1982, 21, 95-105; M. Krisak, Br. J. Pharmacol 1975, 55, 141-150), e.g. investigation, aggression and sexual activity.
The compounds of the invention are administered 1 hour before the encounter per-orally at from about 0.1 to about 10 mg/kg. Groups of 8 mice pairs are used. The frequency and duration of social and non-social behaviour of the mice were recorded using ethological techniques.

[5] = test system: intruder mice (approach-oriented social activities); experiment: Intruder test, Study B (large cage); assay type: in vivo, mouse; conditions: for escape behaviour: single compounds: 1 microgram/kg, in general about 0.01 to about 100 microgram/kg i.p.
Experimental: Study A was modified using a large cage (59×38.5×20 cm) which allowed greater freedom of movement so that elements of defense could be separated more clearly from the approach-oriented social activities. The compounds of the invention were given i.p. at doses from about 0.01 to about 100 microgram/kg 45 minutes before the encounter.
Indruders received the drug. […] In this test at a dose of 1 microgram/kg compound E promoted 8 elements of approach oriented social activities by about 40 per cent. […] Compound H at the same dose promoted 3 elements of approach-oriented social activities by about 40 per cent.

[6] = test system: mice (stretched attend postures); experiment: Stretched Attend Postures (SAP) (No conflict); assay type: in vivo, mouse; conditions: doses higher than 0.1 mg/kg
Experimental: Mice placed upon an unfamiliar elevated platform in a novel environment display characteristic stretched body postures called SAP's which signify amibivalence.
The compounds of the invention administered p.o. at a dose of from about 0.1 to about 10 mg/kg. 2 hours before the test reduce the duration of SAP when placed on the platform for 2 minutes under conditions where no other mice are present.

plasma corticosterone = experiment: Corticosterone levels (Endocrinological profile); assay type: in vivo, mouse; conditions: reduction at high, increase of basal levels at low doses
[7] = Bioavailability and pharmacokinetic profile after nasal / oral administration; assay type: in vivo, mammals including rhesus monkeys and humans; conditions: plasma; ca. 5 to 10 minutes following nasal administration
Experimental: The bioavailability and pharmacokinetic profile of the compounds of the invention may be determined in conventional manner, e.g. in mammals including rhesus monkeys and humans. The concentrations of the compounds of the invention in the blood plasma after administration of from about 0.01 to about 10 mg/kg to each nostril, e.g. 7.5 mg in the case of compound E, locally to the nasal mucous membrane, e.g. as a spray, may be determined in conventional manner by e.g. radioimmunoassay or HPLC methods. The compounds of the invention are rapidly absorbed, e.g. over about 10 minutes.

[8] = 26 week toxicity study in the dog; conditions: in vivo, po, 26 weeks, read-out: no toxic effect bowel (dose), dog
Description: (§1) Toxicity and Tolerability studies may be effected in conventional manner with the compounds of the invention to determine the upper dosage.
(§2) Toxicity studies may be effected for example in the rat and the dog over for example 26 weeks.

[9] = 26 week toxicity study in the rat; conditions: in vivo, po, 26 weeks, read-out: no toxic effect (dose), rat
Description: as §1, §2

healthy human volunteers = experiment: Tolerability in healthy human volunteers; assay type: in vivo; conditions: single doses
Description: as §1

5-HT3 receptors [10] = conditions: rabbit vagus; P. Donatsch et al., Br.j. Pharmacol. 1984, 81,348; cited from earlier work
5-HT3 receptors [11] = conditions: rabbit heart; P. Donatsch et al., Br.j. Pharmacol. 1984, 81,348; cited from earlier work
5-HT3 receptors [12] = conditions: guinea pig ileum; P. Donatsch et al., Br.j. Pharmacol. 1984, 81,348; cited from earlier work
[13] = Bioavailability of co-administered peptide (salmon calcitonin) on nasal administration; assay type: in vivo; conditions: rhesus monkey
Experimental: Additionally, the compounds of the invention when administered, e.g. at a dose of from 0.01 to 10 mg/kg with a therapeutically effective dosage of another compound, e.g. a peptide, such as salmon calcitonin increases the absorption thereof.

[14] = 0.1 mg/kg p.o., 2 hours before the encounter

For `CC(NC(C)(C)C)C(=O)c1cccc(Cl)c1` (stereo not shown) [bupropion], the “increase in mean frequency of social interactions” value ([1]; 2.5 mg/kg, competitive feeding experiment study c)) was 179 per cent, the approach-oriented social behaviours [2] was “increase approach-oriented social behaviours” and the “effect on promoting social interaction under stress related conditions” value [2] was “pronounced effect”.

For `O=C1CC2(CCCC2)CC(=O)N1CCCCN1CCN(c2ncccn2)CC1` [buspirone], the “incidence of SAP's” value [3] is given as “reduce the incidence of SAP's”.

With `CN1[C@@H]2CC[C@H]1C[C@@H](OC(=O)c1c[nH]c3ccccc13)C2` [compound E, Indol-3-yl carboxylic acid endo-8-methyl-8-aza-bicyclo-[3.2.1]oct-3-yl ester] the “frequency of social inter-action” value ([4]; increased from ca 60) was roughly 80, the “duration of social inter-action” value ([4]; increased from ca 90) was roughly 120 s and the “promotion of 8 elements of approach oriented social activities” value ([5]; 1 microgram/kg i.p., 45 minutes before the encounter, 8 elements) was “about 40 per cent”. The escape behaviour [5] was “reduced escape behaviour”, the “increase in mean frequency of social interactions” value ([1]; 0.01 mg/kg, competitive feeding experiment study c)) was 54 per cent and the “increase in duration of feeding” value [1, 14] was 55 per cent. For the same compound, the “increase in duration of social interactions relative to controls” value [1, 14] was 321 per cent, the “increase in frequency of feeding” value [1, 14] was 4 per cent and the “increase in frequency of social interactions relative to controls” value [1, 14] was 54%. For the same compound, the “effect on promoting social interaction under stress related conditions” value [2] was “pronounced effect”, the “effect on SAP at higher doses” value [6] was “the effect was less” and the “corticosterone profile compared with diazepam” value (plasma corticosterone) was “analogous to that observed with diazepam”. For the same compound, the concentration at 10 min [7] was 200 ng/mL, the NOAEL at 4368 h [8] was 5 to 20 mg/kg/day and the NOAEL at 4368 h [9] was 16 to 45 mg/kg/day. For the same compound, the “well tolerated single dose without relevant side effects” value (healthy human volunteers) was “up to 150 mg”, the “antagonistic action against 5-HT3 receptors” value (5-HT3 receptors [10]) was “antagonistic action” and the “antagonistic action against 5-HT3 receptors” value (5-HT3 receptors [11]) was “antagonistic action”. The “antagonistic action against 5-HT3 receptors” value (5-HT3 receptors [12]) was “antagonistic action”.

For `Cc1nccn1CC1CCc2c(c3ccccc3n2C)C1=O` (stereo not shown) [compound H, 1,2,3,9-tetrahydro-9-methyl-3-[(2-methyl-1H-imidazol-1-yl)methyl]-4H-carbazol-4-one], the “promotion of 3 elements of approach-oriented social activities” value ([5]; 1 microgram/kg i.p., 45 minutes before the encounter, 3 elements) was “about 40 per cent”, the cage exploratory behaviour ([5]; 1 microgram/kg i.p., indicative of a stimulant effect) was “increase cage exploratory behaviour” and the escape behaviour [5] was “effect on escape behaviour was less”.

In the case of `CN1C(=O)CN=C(c2ccccc2)c2cc(Cl)ccc21` [diazepam], the ambivalent behaviour ([2]; reversed lighting, darkphase, stress-situations) is reported as “reduce the ambivalent behaviour” and the “social behaviour / approach-oriented behaviour in stress-situations” value ([2]; reversed lighting, darkphase, stress-situations normally inhibitory to social responses) is reported as “can increase social behaviour”.

With `CN(C)CCCN1c2ccccc2CCc2ccccc21` [impramine] the approach-oriented social behaviours [2] was “increase approach-oriented social behaviours”.

In the case of salmon calcitonin, the “bioavailability of salmon calcitonin (AUC up to 2 hours), with compound E” value ([13]; salmon calcitonin 100 IU + compound E 15 mg, half to each nostril) is reported as 1.632 m IU/ml/hr/plasma and the “bioavailability of salmon calcitonin (AUC up to 2 hours), before increase by compound E” value ([13]; salmon calcitonin 100 IU nasal, without compound E) is reported as 0.08 mIU/ml/hr.
